Tests used:
[1] = tested on: γ-secretase; experiment: γ-Secretase reaction premixed with synthetic Aβ peptides (AICD production, urea gels of Aβ products); type: biochemical; conditions: for effect on the rate of AICD production: extremely high concentrations of synthetic peptide, half-saturating C99 (0.45 µM); for effect on relative difference between Aβ 1–40, Aβ 1–42 and the longer Aβ products: reaction premixed with 10 nM synthetic peptide, urea gels, [C99] = 0.45 µM, 4 hours
Description: Figure 7 γ-Secretase is not affected by Aβ peptides present in free solution. (A) The lanes labeled as “free reaction” represent Aβ products after 4 hours of routine γ-secretase reaction at half saturating C99 substrate ([C99] = 0.45 µM). The lanes labeled as “+10 nM Aβ 1–42” and “+10 nM Aβ 1–40” represent “free reaction” premixed with synthetic Aβ 1–42 or Aβ 1–40 in a concentration equivalent that corresponds to 4 hours of free reaction. The lanes labeled “+21F12” and “+2G6” represent “free reaction” that was premixed with antibodies specific for Aβ42 or Aβ40 respectively. Both 2G6 and 21F12 antibodies bind the matching Aβ peptides very efficiently as indicated by a complete removal of the corresponding Aβ bands in the reactions with protein G beads (samples labeled as “21F12 and prot. G” and “2G6 and prot. G”). The lane “Aβ std 1-x” represents synthetic peptides as mobility standards. (B) AICD production was measured at half-saturating C99 substrate (0.45 µM) in assays that were premixed with increasing concentrations of synthetic Aβ 1–38, Aβ 1–40, Aβ 1–42, or Aβ 1–44.
(§1) γ-Secretase assays using CHAPSO enriched membranes were performed essentially as earlier described, [37], [48], [89]. Briefly, microsomal fractions (protein concentration 10 mg/ml) from different MEF cells were solubilized in 1% CHAPSO buffer (50 mM Pipes, pH 7.0, 0.25 M sucrose, 1 mM EGTA, 1×Complete protease inhibitor mixture (Roche)) and incubated on ice for 1 h. CHAPSO was always prepared as 1% w/v fresh from a powder stock that was less than 6 months old and kept at 4°C (freshness is crucial for high activity). Next, the membrane-solubilized protein fractions were obtained as supernatant by ultracentrifugation for 1 hour at 100,000×g. The prepared CHAPSO enriched membranes were diluted two fold with 50 mM Pipes pH = 7.0, 0.25 M sucrose, 1 mM EGTA, 0.1% phosphatidylcholine, and 0.0125% phosphatidylethanolamine, plus 1×Complete protease inhibitor mixture (Roche), and left on 37°C for two to three hours. This incubation can increase the measured activity by up to 70% since it can accommodate slow reassembly of γ-secretase components that is induced by the transition from 1% CHAPSO to 0.25% CHAPSO [90]. The reactions were started by adding C99 substrate in desired concentration, the added volume was adjusted so that: i) the final CHAPSO concentration was 0.25%; ii) and final concentration of membrane proteins was 0.25 mg/ml. Fresh C99 substrate that is used immediately after purification gives the best opportunity to observe described enzymatic features and the highest activity. The assay mix was prepared in low adhesion microcentrifuge tubes, the volume was usually 25 µL. To increase sensitivity in early data points detection, and at low enzyme saturation, the assay volume was increased up to 400 µL, and the resulting reaction products were concentrated by immunoprecipitation before the gels were loaded. The reaction mix was incubated at 37°C, the time was optimized for each experiment. The AICD production remains linear for 6 hours at saturating substrate. The reaction specificity was confirmed by running identical parallel reactions that have been saturated with inhibitors specific for γ-secretase; 10 µM LY-411,575 and 10 µM DAPT [3], [4].
(§2) AICD assays using western-blots with anti-flag αM2 monoclonal antibody, or 125-I labelled C99 autoradiography were performed as earlier described, [37]. To keep the C99 bands visible on gels in difference to the previous studies the reaction aliquots were not subjected to methanol /chloroform extraction. Briefly, the samples were separated on Nu-PAGE 12% Bis/Tris/MES/SDS-page gels (Invitrogen) at 150 V for 55 min. For 125-I-C99 assays the gels were dried and exposed for 1–2 hours to europium intensifying screens for autoradiography. […]

[2] = molecular target: γ-secretase (CHAPSO enriched γ-secretase membranes) (not stated (endogenous mouse in MEF, or human presenilin 1 transduced) | mouse (endogenous in MEF)) (UniProt P49768)
[3] = molecular target: APP C99-3×FLAG (human); experiment: AlphaScreen or HTRF; increasing fresh C99 incubated 3 h with 10 nM 3D6 antibody coupled to both donor and acceptor beads; signal only if C99 dimerization/oligomerization brings two epitopes together; apparent Kd from a quadratic equation specific for dimerization (dimer to monomers)
[4] = tested on: patients; parameters: method as in PMID 21222550; conditions: Phase III clinical trials; cited from earlier work
[5] = tested on: γ-secretase carrying presenilin 1 FAD mutation ΔE9; experiment: Inhibition of total AICD production, CHAPSO enriched γ-secretase membranes, FAD mutant ΔE9; type: biochemical, human; conditions: for Hill's coef. / IC50: ΔE9 presenilin 1, best fit ± standard error, eqn. 3; for IC50: total AICD production, western blot; for decrease in inhibition potency relative to the WT: ΔE9 vs WT presenilin 1
Description: (§3) Figure 9 Inhibition of WT presenilin 1 and FAD mutants by DAPT and L-685,458. CHAPSO enriched γ-secretase membranes carrying WT presenilin 1 or FAD mutations ΔE9 and G384A have been prepared and analyzed in parallel with all conditions identical. The dose response curves for DAPT [71] and L-685,458 [15] were measured by following total AICD production using western-blots with αM2 antiflag antibody as shown in Fig. 3. The results were analyzed using nonlinear regression and the equation 3 (methods).
(§4) MEF cells, or MEF double knockout for endogenous presenilin transduced with human WT, dE9 and G384A presenilin 1 [85], were grown to confluence, scraped, and collected in pellets by centrifugation at 1000×g for 5 min. The cell pellets were re-suspended in 20 mM Pipes pH = 7.0, 140 mM KCl, 0.25 M sucrose, 5 mM EGTA, plus 1X Roche protease inhibitors cocktail, so that the total protein concentration was 10 mg/ml. Re-suspended cells were subjected to more than 20 passages in 8.010 mm cell-cracker. The resulting cell extract was subjected to 10 min centrifugation on 2000×g to remove large debris, and the fragmented membranes were collected as pellets after centrifugation for 1 hour at 100 000×g, and stored at −80°C.
as §1, §2

[6] = molecular target: T1, γ-secretase carrying presenilin 1 FAD mutation G384A (Homo sapiens, UniProt P49768, G384A); experiment: Inhibition of total AICD production, CHAPSO enriched γ-secretase membranes, FAD mutant G384A; type: biochemical; conditions: for decrease in inhibition potency relative to the WT: G384A vs WT presenilin 1
T1 construct: expressed in transfected cells; host or cells: MEF double knockout for endogenous presenilin, transduced; CHAPSO-solubilised microsomal membranes
Description: as §3, §4
as §1, with “[4]. […]” for “[4].”

[7] = molecular target: T2, γ-secretase carrying WT presenilin 1 (Homo sapiens, UniProt P49768); experiment: Inhibition of total AICD production, CHAPSO enriched γ-secretase membranes, WT presenilin 1; type: biochemical; conditions: best fit ± standard error, eqn. 3; for IC50: total AICD production, western blot
T2 construct: expressed in transfected cells; host or cells: MEF double knockout for endogenous presenilin, transduced; CHAPSO-solubilised microsomal membranes
Description: as §3, §4
as §1, with “The assay mix was prepared in low adhesion microcentrifuge tubes, the volume was usually 25 µL. To increase sensitivity in early data points detection, and at low enzyme saturation, the assay volume was increased up to 400 µL, and the resulting reaction products were concentrated by immunoprecipitation before the gels were loaded. The reaction mix was incubated at 37°C, the time was optimized for each experiment. The AICD production remains linear for 6 hours at saturating substrate. The reaction specificity was confirmed by running identical parallel reactions that have been saturated with inhibitors specific for γ-secretase; 10 µM LY-411,575 and 10 µM DAPT [3], [4].” left out

[8] = tested on: γ-secretase; experiment: Titration of γ-secretase activity in CHAPSO enriched membranes with LY-411,575; type: biochemical; conditions: total protein 0.25 mg/ml and 0.09 mg/ml
Description: γ-Secretase assays using CHAPSO enriched membranes were performed essentially as earlier described, [37], [48], [89]. Briefly, microsomal fractions (protein concentration 10 mg/ml) from different MEF cells were solubilized in 1% CHAPSO buffer (50 mM Pipes, pH 7.0, 0.25 M sucrose, 1 mM EGTA, 1×Complete protease inhibitor mixture (Roche)) and incubated on ice for 1 h. CHAPSO was always prepared as 1% w/v fresh from a powder stock that was less than 6 months old and kept at 4°C (freshness is crucial for high activity). Next, the membrane-solubilized protein fractions were obtained as supernatant by ultracentrifugation for 1 hour at 100,000×g. The prepared CHAPSO enriched membranes were diluted two fold with 50 mM Pipes pH = 7.0, 0.25 M sucrose, 1 mM EGTA, 0.1% phosphatidylcholine, and 0.0125% phosphatidylethanolamine, plus 1×Complete protease inhibitor mixture (Roche), and left on 37°C for two to three hours. This incubation can increase the measured activity by up to 70% since it can accommodate slow reassembly of γ-secretase components that is induced by the transition from 1% CHAPSO to 0.25% CHAPSO [90]. The reactions were started by adding C99 substrate in desired concentration, the added volume was adjusted so that: i) the final CHAPSO concentration was 0.25%; ii) and final concentration of membrane proteins was 0.25 mg/ml. […]

[9] = molecular target: γ-secretase; conditions: quoted without reference; read-out: IC50 in cell-based assays; cited from earlier work
[10] = tested on: γ-secretase; experiment: Michaelis-Menten profiles for AICD, Aβ 1–40 and Aβ 1–42 in presence of DAPT; type: biochemical; conditions: enzyme approaching saturation with C99 substrate; DAPT 70-200 nM
Description: Figure 3 Michaelis-Menten profiles for AICD, Aβ 1–40 and Aβ 1–42 in presence of DAPT. CHAPSO enriched γ-secretase membranes were used to measure Michaelis-Menten profiles for total AICD production in presence of 0 nM (•), 70 nM (+) and 150 nM (O) of DAPT. Michaelis-Menten profiles for Aβ 1–40 and Aβ 1–42 production were measured in presence of 0 nM (•), 100 nM (+) and 200 nM (O) of DAPT. All profiles have been analyzed using nonlinear regression and the eqn. 4 (methods). The gel strips show different concentrations of the C99 substrate and the corresponding AICD products. […] AICD was measured using antiflag M2 antibodies (as shown in the gel strip). Aβ 1–40, and Aβ 1–42 were measured using AlphaScreen® as described in methods section.
γ-Secretase assays using CHAPSO enriched membranes were performed essentially as earlier described, [37], [48], [89]. […] This incubation can increase the measured activity by up to 70% since it can accommodate slow reassembly of γ-secretase components that is induced by the transition from 1% CHAPSO to 0.25% CHAPSO [90]. […]
AICD assays using western-blots with anti-flag αM2 monoclonal antibody, or 125-I labelled C99 autoradiography were performed as earlier described, [37]. […] Following the washes with TBS +0.1% Tween 20, the membranes were subjected to 25 nM GAMIR (MolecularProbes), washed, and read using fluorescence at […]. […]

[11] = molecular target: γ-secretase (CHAPSO enriched γ-secretase membranes) (not stated (endogenous mouse in MEF, or human presenilin 1 transduced) | mouse (endogenous in MEF)) (UniProt P49768); remark: listed apart in the source
[12] = G384A presenilin 1, best fit ± standard error, eqn. 3

## Aβ 1–42: synthetic Aβ 1-x standard prepared by solid phase synthesis
[1]
  effect on the rate of AICD production: do not affect
  effect on relative difference between Aβ 1–40, Aβ 1–42 and the longer Aβ products: does not affect

## Aβ 1–44: synthetic Aβ 1-x standard prepared by solid phase synthesis
[1]
  effect on the rate of AICD production: do not affect

## APP C99-3×FLAG (domain or fragment)
[2]
  Y-axis intercept of the pre-steady-state burst in AICD production (3.0 µM C99, CHAPSO enriched γ-secretase membranes 0.25 mg/ml): 8.2 nM
[3]
  Kd: 33 nM

## Aβ 1–38: synthetic Aβ 1-x standard prepared by solid phase synthesis
[1]
  effect on the rate of AICD production: do not affect

## CC(C)[C@H](O)C(=O)N[C@@H](C)C(=O)N[C@@H]1C(=O)N(C)CCc2ccccc21 [semagacestat]
[4]
  effect on cognitive decline in patients: can accelerate the cognitive decline

## CC(C)C[C@H](NC(=O)[C@H](Cc1ccccc1)C[C@@H](O)[C@H](Cc1ccccc1)NC(=O)OC(C)(C)C)C(=O)N[C@@H](Cc1ccccc1)C(N)=O [L-685,458, {1S-benzyl-4R-[1S-carbamoyl-2-phenylethylcarbamoyl-1S-3-methylbutylcarbamoyl]-2R-hydroxy-5-phenylpentyl} carbamic acid tert-butyl ester]
[5]
  Hill's coef.: 0.98± 0.08
  IC50: 707 ± 80 nM
  decrease in inhibition potency relative to the WT: 10–20 fold
[6]; [12]
  Hill's coef.: 1±0.13
[6]; G384A presenilin 1, total AICD production, western blot, best fit ± standard error, eqn. 3
  IC50: 398 ± 51 nM
[6]
  decrease in inhibition potency relative to the WT: 10–20 fold
[7]
  Hill's coef.: 1.3±0.1
  IC50: 32 ± 4 nM

## C[C@H](NC(=O)[C@@H](O)c1cc(F)cc(F)c1)C(=O)N[C@@H]1C(=O)N(C)c2ccccc2-c2ccccc21 [LY-411,575]
[8]
  concentration that completely abolishes γ-secretase activity: 1 to 2 nM
[9]
  IC50: ~0.1 nM

## Aβ 1–40: synthetic Aβ 1-x standard prepared by solid phase synthesis
[1]
  effect on the rate of AICD production: do not affect
  effect on relative difference between Aβ 1–40, Aβ 1–42 and the longer Aβ products: does not affect

## C[C@H](NC(=O)Cc1cc(F)cc(F)c1)C(=O)N[C@H](C(=O)OC(C)(C)C)c1ccccc1 [DAPT, N-[N-(3,5-difluorophenacetyl)-L-alanyl]-S-phenylglycine t-butyl ester]
[5]
  Hill's coef.: 1.21±0.07
  IC50: 734 ± 254 nM
  decrease in inhibition potency relative to the WT: approximately twofold
[10]
  mode of inhibition versus C99 substrate: noncompetitive inhibitor
[6]; [12]
  Hill's coef.: 0.54±0.25
[6]
  decrease in inhibition potency relative to the WT: about 1000 fold
[7]
  Hill's coef.: 0.7±0.2
  IC50: 390 ± 179 nM

## NotchΔE substrate (NotchΔE-3xFLAG) (domain or fragment)
[11]
  AICD production from 125-I labeled C99 at half-saturating C99 (0.44-0.45 µM) with increasing NotchΔE substrate: activation, then inhibition only at higher NotchΔE concentrations: 85%

— publication PMC3316526, “Modulation of γ-Secretase Activity by Multiple Enzyme-Substrate Interactions: Implications in Pathogenesis of Alzheimer's Disease” (PLoS ONE, 2012)
